Measurements from PubChem BioAssay (NCI).
Values joined by “and” are separate entries in the source; they are usually repeats but may differ in a detail not shown here. Equal values may be shown once.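 Results reflect a 48-hour exposure of cells in 96-well plates to compound at five concentrations. Abbreviation: GI50, concentration required for 50% inhibition of growth. At the TGI there is no net growth.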

Key:
Test in all cases: growth of human tumour cells (NCI), 48 h
OVCAR-8 ovarian = system: OVCAR-8 ovarian
A549 NSCLC = system: A549 NSCLC
DU-145 prostate = system: DU-145 prostate
SR leukemia = system: SR leukemia
TK-10 renal = system: TK-10 renal
KM12 colon = system: KM12 colon
NCI-H226 lung = system: NCI-H226 lung
LOX IMVI melanoma = system: LOX IMVI melanoma
MALME-3M melanoma = system: MALME-3M melanoma
HCC-2998 colon = system: HCC-2998 colon

SMILES	TGI (OVCAR-8 ovarian)	TGI (A549 NSCLC)	TGI (DU-145 prostate) [µM]	TGI (SR leukemia)	TGI (TK-10 renal)	TGI (KM12 colon)	TGI (NCI-H226 lung)	TGI (LOX IMVI melanoma)	GI50 (MALME-3M melanoma)	TGI (MALME-3M melanoma)	GI50 (OVCAR-8 ovarian) [µM]	GI50 (A549 NSCLC) [µM]	GI50 (DU-145 prostate) [µM]	GI50 (SR leukemia) [µM]	GI50 (HCC-2998 colon) [µM]	TGI (HCC-2998 colon) [µM]	GI50 (TK-10 renal) [µM]	GI50 (KM12 colon) [µM]	GI50 (NCI-H226 lung) [µM]	GI50 (LOX IMVI melanoma) [µM]
CS(=O)(=O)c1ccc(C(=O)Nc2ccc(Cl)c(-c3ccccn3)c2)c(Cl)c1	> 100 µM and 25.5 µM	> 100 µM and 21.2 µM	> 100	> 100 µM and 20.9 µM	> 100 µM and 34.7 µM	> 100 µM and 10.2 µM	> 100 µM and 26.5 µM	> 100 µM and 10.1 µM	41.9 µM and 5.24 µM	> 100 µM and 31.6 µM										
N=C(N)c1ccc(N2CCCN(c3ccc(C(=N)N)cc3)CC2)cc1	> 100 µM	> 100 µM	> 100	> 100 µM	> 100 µM	> 100 µM	> 100 µM	> 100 µM	39.6 µM	> 100 µM	49.6	40.5	46.7	> 100	> 100	> 100	58.2	62.1	84.7	56.1
CCCCCCCCCCCCCCCCCC(=O)OCC(COC1OC(COP(=O)(O)O)C(O)C(O)C1O)OC(=O)CCCCCCCCCCCCCCCCC (centres undefined)	17.8 µM	16 µM	16.8		17.6 µM	13 µM	13.3 µM	17.2 µM		14.2 µM						15.7				
O=C1c2ccccc2-c2c1c1ccc([N+](=O)[O-])cc1c(=O)n2CCCBr	> 100 µM	> 100 µM	> 100	> 100 µM		> 100 µM		> 100 µM	> 100 µM	> 100 µM	> 100	> 100	> 100	0.2	> 100	> 100		> 100		4.18
Cc1ccc(C2=NOC3=c4ccccc4=CSC3=C2c2ccc([N+](=O)[O-])cc2)cc1	40.5 µM	> 100 µM	> 100		40.3 µM	> 100 µM	34 µM	53.8 µM	17.7 µM	89.5 µM	6.22	24.5	15.2		24.4	> 100	13	61.1	14	16.2
N#CC(C(=O)CCC(=O)Nc1cccc(Cl)c1)c1ccccc1 (centres undefined)	> 100 µM	> 100 µM		> 100 µM	> 100 µM	> 100 µM	> 100 µM	> 100 µM		> 100 µM						> 100				
C=CC(=O)N(C)[C@H]1C[C@H]2OC(C)(C1OC)n1c3ccccc3c3c4c(c5c6ccccc6n2c5c31)C(=O)NC4 (some centres undefined)		> 20 µM	18.7	0.776 µM		0.79 µM	0.92 µM	0.67 µM	0.0706 µM	0.449 µM	0.217	0.0938	0.124	0.0983	0.575	1.46		0.0228	0.0963	0.0823
Cc1cc2c(C)n(Cc3ccc(Cl)cc3Cl)nc2c(C#N)c1C	> 100 µM	> 100 µM		> 100 µM	68.4 µM	> 100 µM	> 56.2 µM	> 100 µM		> 81.6 µM						> 100				
CC(C)CC(CC1=CCC2CC1C2(C)C)C1=C(O)C(C)(C)C(=O)C(C)(C)C1=O (centres undefined)	> 100 µM	> 100 µM	> 100		98.9 µM	2.79 µM	9.46 µM	10.7 µM	0.295 µM	1.13 µM	0.379	0.359	0.465				0.424	0.328	0.42	0.336
CCOC(=O)C1Oc2ccc([N+](=O)[O-])c3c2C1(O)CCC3 (centres undefined)	> 100 µM	> 100 µM		> 100 µM	> 100 µM	> 100 µM	> 100 µM	> 100 µM		> 100 µM						> 100				
COC1CC(OS(=O)(=O)c2ccc(C)cc2)C(OC(=O)c2ccccc2)C(C)O1 (centres undefined)	> 100 µM	> 100 µM		> 10 µM	> 100 µM	> 100 µM	> 100 µM	> 100 µM	> 100 µM	> 100 µM	> 100	> 100			> 100	> 100	> 100	> 100	> 100	> 100
O=C(NN1C(=O)CSC12CCCCC2)c1[nH]c2ccc(F)cc2c1-c1ccccc1	31.9 µM	30.6 µM	45.2		35.7 µM	32.6 µM	77 µM	61.9 µM	20.2 µM	43.5 µM	18	16.7	22.6		34.8	92.5	19.4	17.1	28.1	24.1
O=S(=O)(c1ccccc1)C(CN1CCCCC1)S(=O)(=O)c1ccccc1	> 100 µM	> 100 µM		> 100 µM	> 100 µM	> 100 µM	> 100 µM	> 100 µM		> 100 µM						> 100				
Nc1ncnc2[nH]ncc12	16.6 µM	> 66.8 µM	18	> 100 µM	> 47.6 µM	18.3 µM	> 100 µM	> 41 µM			0.285	1.72	0.358	0.445	0.251	4.85	0.589	1.26	4.04	0.34
COc1ccc(OC)c(NC(=O)CCC/C(CC(=O)c2ccc(O)c(OC)c2)=N\NC(=O)C[N+](C)(C)C)c1	> 100 µM	> 100 µM		> 100 µM	> 100 µM	> 100 µM	> 100 µM	> 100 µM		> 100 µM						> 100				
CCCCNCC(=O)O[C@]1(CC)C(=O)OCc2c1cc1n(c2=O)Cc2cc3ccccc3nc2-1		26.7 µM	1.32	0.0355 µM	> 96.5 µM	6.55 µM	2.06 µM	1.43 µM		30.5 µM						8.76				

SMILES	TGI (OVCAR-8 ovarian)	TGI (A549 NSCLC)	TGI (DU-145 prostate) [µM]	TGI (SR leukemia)	TGI (TK-10 renal)	TGI (KM12 colon)	TGI (NCI-H226 lung)	TGI (LOX IMVI melanoma)	GI50 (MALME-3M melanoma)	TGI (MALME-3M melanoma)	GI50 (OVCAR-8 ovarian) [µM]	GI50 (A549 NSCLC) [µM]	GI50 (DU-145 prostate) [µM]	GI50 (SR leukemia) [µM]	GI50 (HCC-2998 colon) [µM]	TGI (HCC-2998 colon) [µM]	GI50 (TK-10 renal) [µM]	GI50 (KM12 colon) [µM]	GI50 (NCI-H226 lung) [µM]	GI50 (LOX IMVI melanoma) [µM]
CCN=C1C=CC(=C(c2ccc(N)cc2)c2ccc(N(CC)CC)c(C)c2)C=C1		12.9 µM	2.28	1.24 µM	10.7 µM	1.09 µM			0.329 µM	1.23 µM		0.337	0.43	0.313	0.48	1.65	0.396	0.296		
CN1CCN(Cc2ccc(NC(=O)c3cncc(C#Cc4cnc(N)c5ccncc45)c3)cc2C(F)(F)F)CC1	8.86 µM	6.92 µM	6.67	> 24.5 µM	7.84 µM	5.52 µM		0.707 µM	0.106 µM	0.404 µM	1.42	1.38	0.527	0.567	1.78	7.89	1.56	0.027		0.176
c1ccc2c(c1)c(NCCCCN1CCCCC1)cc1c3ccccc3c(NCCCCN3CCCCC3)cc21	47.2 µM	56.6 µM	46.2		48.9 µM	8.98 µM	54.9 µM	28.2 µM	12.9 µM	38.7 µM	21.2	21.8	16.3		18.2	41.6	22.1	2.97	20.9	11.2
CCOC(=O)c1oc2ccc(OC)c3c2c1CCC3	> 100 µM	> 100 µM		> 100 µM	> 100 µM	> 100 µM	> 100 µM	> 100 µM		> 100 µM						> 100				
CN(C)c1ccc2c(c1)Sc1cc(N(C)C)ccc1N2C(=O)c1ccccc1	> 100 µM	> 100 µM	> 100	> 100 µM		> 100 µM	> 100 µM	> 100 µM	21.4 µM	77.1 µM	50.3	32.5	> 100	14.6	73.2	> 100		31.6	71.6	24.2
O=C(/C(=C/c1ccc([N+](=O)[O-])cc1)c1ccccc1)c1ccccc1		> 100 µM	> 100	> 100 µM	> 100 µM	9.52 µM						3.8	3.17	2.79	2.38	5.24	3.43	3.06		
COc1ccc(C(OCC2OC(n3ccc(NC(=O)c4ccccc4)nc3=O)C(O)C2O)(c2ccccc2)c2ccccc2)cc1 (centres undefined)	3.22 µM	14.9 µM	10.3	4.96 µM		38.5 µM	7.87 µM			3.73 µM						12.6				
CCN(C(=O)N1CCN(c2cc3c(cc2F)c(=O)c(C(=O)O)cn3C2CC2)CC1)c1nc(-c2ccc(C)cc2)cs1	> 100 µM	> 100 µM	82.8	> 100 µM	> 33.3 µM	> 100 µM					1.41	0.42	0.442	0.269	0.694	> 100	2.7	0.41		
CCN1CCC(CCOC)(CN2c3ccccc3Sc3ccc(Cl)cc32)C1 (centres undefined)	4.14 µM	3.56 µM	3.68	> 100 µM	3.67 µM	3.43 µM	4.67 µM		1.91 µM	3.6 µM	2.07	1.9	1.92	4.01	1.63	3.2	2.03	1.79	1.92	
Clc1cc(Cl)c(OCC#CI)cc1Cl	13.1 µM	31.4 µM	10		13.2 µM	27.5 µM	40.8 µM	2.74 µM			3.39	16.8	3.01		19.6	33.8	3.45	13.9	19.3	1.33
N#Cc1c(N/N=C/c2c(Cl)cccc2Cl)nc(N)nc1N1CCOCC1	> 100 µM	> 100 µM	> 100	3.18 µM	92 µM	71.7 µM	> 100 µM	> 100 µM			60.6	19.1	16	1.1	3.96	12.8	20.8	4.06	24.5	8.97
COc1cc2c(cc1OCCCCOc1cc3c(cc1OC)C(=O)N1CCC[C@H]1CN3)N=C[C@@H]1CCCN1C2=O	> 33.1 µM	> 100 µM	> 100		8.38 µM	86.2 µM	4.49 µM	> 32.5 µM	1.47 µM	4.1 µM	3.37	9.21	2.46		2	5.64	1.64	1.97	1.94	1.07
C=C1CC[C@@H]2[C@](C)(COC(C)=O)[C@@H](O)CC[C@@]2(C)[C@@H]1COc1ccc2ccc(=O)oc2c1	> 100 µM	> 100 µM	> 100	> 100 µM	> 100 µM	> 100 µM		> 100 µM	> 100 µM	> 100 µM	> 100	> 100	> 100	87.4	> 100	> 100	> 100	> 100		> 100
O=c1[nH]c2ccccc2nc1-c1c[nH]c2ccccc12	> 100 µM	> 100 µM	> 100	> 100 µM	> 100 µM	> 100 µM		> 100 µM	39.8 µM	> 100 µM	> 100	> 100	> 100	> 100	> 100	> 100	> 100	1.39		> 100
CCCCCCCCCCCC(=O)OCCOCCOCCOCCOCCOCc1ccc(OC)cc1	> 100 µM	> 100 µM		> 100 µM	> 100 µM	> 100 µM	> 100 µM	> 100 µM		> 100 µM						> 100				
